Laboratory results as given in patent US9833497B2, “Human originated EGF domain proteins and use of the same” (CHENGDU SOURCEBIO LIMITED-LIABILITY COMPANY, priority 2013, dated 2017).

Tests used:
Type in all cases: cell-based
E. coli DH5α = experiment: Antibacterial activity: MIC and growth curve against E. coli DH5α in 96-well plate; details: minimal inhibitory concentration against E. coli DH5α; 96-well plate, 5×10^5 CFU/mL, 37° C., judged after 8 h
Outline: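 MIC taken as lowest protein level with no bacterial growth, tracked by A600 every 30 min during 37 °C, 175 rpm culture. Two-fold protein series 50-12.5 μg/mL final, triplicate wells, against 5×10^5 CFU/mL of LB-washed mid-log cells.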

Moraxella catarrhalis = experiment: MIC against Gram-negative bacteria: Moraxella catarrhalis; details: for MIC (μg/mL) M. catarrhalis / MIC against M. catarrhalis: 5×10^5 CFU/mL
Outline: (§1)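 MIC = lowest concentration of recombinant protein showing no growth. Test proteins: purified human-derived EGF domain proteins, two-fold dilution series, three wells per concentration; inoculum 5×10^5 CFU/mL in LB; incubation 37° C with shaking at 175 rpm.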

Serratia marcescens = experiment: MIC against Gram-negative bacteria: Serratia marcescens; details: for MIC (μg/mL) S. marcescens / MIC against S. marcescens: 5×10^5 CFU/mL
Outline: as §1

Proteus vulgaris = experiment: MIC against Gram-negative bacteria: Proteus vulgaris; details: for MIC (μg/mL) P. vulgaris / MIC against P. vulgaris: 5×10^5 CFU/mL
Outline: as §1

Citrobacter diversus = experiment: MIC against Gram-negative bacteria: Citrobacter diversus; details: for MIC (μg/mL) C. diversus / MIC against C. diversus: 5×10^5 CFU/mL
Outline: as §1

E. coli BL21 = experiment: MIC against Gram-negative bacteria: E. coli BL21; details: for MIC (μg/mL) E. coli BL21 / MIC against E. coli BL21: 5×10^5 CFU/mL
Outline: as §1

Aeromonas hydrophila = experiment: MIC against Gram-negative bacteria: Aeromonas hydrophila; details: for MIC (μg/mL) A. hydrophila / MIC against A. hydrophila: 5×10^5 CFU/mL
Outline: as §1

Pseudomonas aeruginosa = experiment: MIC against Gram-negative bacteria: Pseudomonas aeruginosa; details: for MIC (μg/mL) P. aeruginosa / MIC against P. aeruginosa: 5×10^5 CFU/mL
Outline: as §1

Proteus mirabilis = experiment: MIC against Gram-negative bacteria: Proteus mirabilis; details: for MIC (μg/mL) P. mirabilis / MIC against P. mirabilis: 5×10^5 CFU/mL
Outline: as §1

Enterobacter cloacae = experiment: MIC against Gram-negative bacteria: Enterobacter cloacae; details: for MIC (μg/mL) E. cloacae / MIC against E. cloacae: 5×10^5 CFU/mL
Outline: as §1

Klebsiella pneumonia = experiment: MIC against Gram-negative bacteria: Klebsiella pneumonia; details: for MIC (μg/mL) K. pneumonia / MIC against K. pneumonia: 5×10^5 CFU/mL
Outline: as §1

[1] = M. catarrhalis, 10 h cultivation at 37° C.
[2] = S. marcescens, 10 h cultivation at 37° C.
[3] = P. vulgaris, 10 h cultivation at 37° C.
[4] = C. diversus, 10 h cultivation at 37° C.
[5] = E. coli BL21, 10 h cultivation at 37° C.
[6] = A. hydrophila, 10 h cultivation at 37° C.
[7] = P. aeruginosa, 10 h cultivation at 37° C.
[8] = P. mirabilis, 10 h cultivation at 37° C.
[9] = E. cloacae, 10 h cultivation at 37° C.
[10] = K. pneumonia, 10 h cultivation at 37° C.
[11] = Moraxella catarrhalis, 96-well plate, 37° C., 10 h
[12] = Serratia marcescens, 96-well plate, 37° C., 10 h
[13] = Proteus vulgaris, 96-well plate, 37° C., 10 h
[14] = Citrobacter diversus, 96-well plate, 37° C., 10 h
[15] = E. coli BL21, 96-well plate, 37° C., 10 h
[16] = Aeromonas hydrophila, 96-well plate, 37° C., 10 h
[17] = Pseudomonas aeruginosa, 96-well plate, 37° C., 10 h
[18] = Proteus mirabilis, 96-well plate, 37° C., 10 h
[19] = Enterobacter cloacae, 96-well plate, 37° C., 10 h
[20] = Klebsiella pneumonia, 96-well plate, 37° C., 10 h

PRT765 (VRDKCALGSHGCQHICVSDGAASYHCDCYPGYTLNEDKKTCS; listed as Homo sapiens)
12.5 µg/mL: MIC (μg/mL) M. catarrhalis (Moraxella catarrhalis; [1]) | MIC (μg/mL) S. marcescens (Serratia marcescens; [2]) | MIC (μg/mL) P. vulgaris (Proteus vulgaris; [3]) | MIC (μg/mL) C. diversus (Citrobacter diversus; [4]) | MIC (μg/mL) A. hydrophila (Aeromonas hydrophila; [6]) | MIC (μg/mL) P. aeruginosa (Pseudomonas aeruginosa; [7]) | MIC (μg/mL) P. mirabilis (Proteus mirabilis; [8]) | MIC (μg/mL) E. cloacae (Enterobacter cloacae; [9])
12.5 mg/L: MIC (E. coli DH5α)
50 µg/mL: MIC (μg/mL) E. coli BL21 (E. coli BL21; [5]) | MIC (μg/mL) K. pneumonia (Klebsiella pneumonia; [10])

PRT909 (LVDECSPSPCQNGATCTDYLGGYSCKCVAGYHGVNCS; listed as Homo sapiens)
50 mg/L: MIC (E. coli DH5α) | MIC (Proteus vulgaris; [3]) | MIC (Citrobacter diversus; [4]) | MIC (Klebsiella pneumonia; [10])
25 mg/L: MIC (Moraxella catarrhalis; [1]) | MIC (E. coli BL21; [5]) | MIC (Enterobacter cloacae; [9])
12.5 mg/L: MIC (Serratia marcescens; [2]) | MIC (Aeromonas hydrophila; [6]) | MIC (Pseudomonas aeruginosa; [7]) | MIC (Proteus mirabilis; [8])

PRT10 (NCSAQCHNHGVCNHKQECHCHAGWAPPHCA; listed as Homo sapiens)
12.5 µg/mL: MIC (μg/mL) M. catarrhalis (Moraxella catarrhalis; [11]) | MIC (μg/mL) S. marcescens (Serratia marcescens; [12]) | MIC (μg/mL) P. aeruginosa (Pseudomonas aeruginosa; [17]) | MIC (μg/mL) P. mirabilis (Proteus mirabilis; [18]) | MIC (μg/mL) E. cloacae (Enterobacter cloacae; [19])
25 µg/mL: MIC (μg/mL) P. vulgaris (Proteus vulgaris; [13]) | MIC (μg/mL) C. diversus (Citrobacter diversus; [14])
50 µg/mL: MIC (μg/mL) E. coli BL21 (E. coli BL21; [15]) | MIC (μg/mL) A. hydrophila (Aeromonas hydrophila; [16]) | MIC (μg/mL) K. pneumonia (Klebsiella pneumonia; [20])
25 mg/L: MIC (E. coli DH5α)

PRT1293 (KLDFCAQDLNPCQHDSKCILTPKGFKCDCTPGYVGEHCD; listed as Homo sapiens)
50 mg/L: MIC against P. vulgaris (Proteus vulgaris; [13]) | MIC against A. hydrophila (Aeromonas hydrophila; [16]) | MIC against K. pneumonia (Klebsiella pneumonia; [20])
12.5 mg/L: MIC against M. catarrhalis (Moraxella catarrhalis; [11]) | MIC against S. marcescens (Serratia marcescens; [12]) | MIC against C. diversus (Citrobacter diversus; [14]) | MIC against E. coli BL21 (E. coli BL21; [15]) | MIC against P. mirabilis (Proteus mirabilis; [18]) | MIC against E. cloacae (Enterobacter cloacae; [19])
25 mg/L: MIC (E. coli DH5α) | MIC against P. aeruginosa (Pseudomonas aeruginosa; [17])

PRT478 (ATQYCSRAQCHGHGRCVRRNPSASTFLHLSTNSFRLVPGHAPGEPQLRPVGELSWADIDH; listed as Homo sapiens)
50 mg/L: MIC (E. coli DH5α) | MIC against P. mirabilis (Proteus mirabilis; 96-well plate, 37° C., 10 h) | MIC against E. cloacae (Enterobacter cloacae; 96-well plate, 37° C., 10 h)
100 mg/L: MIC against C. diversus (Citrobacter diversus; 96-well plate, 37° C., 10 h)
25 mg/L: MIC against M. catarrhalis (Moraxella catarrhalis; 96-well plate, 37° C., 10 h) | MIC against P. vulgaris (Proteus vulgaris; 96-well plate, 37° C., 10 h) | MIC against E. coli BL21 (E. coli BL21; 96-well plate, 37° C., 10 h) | MIC against A. hydrophila (Aeromonas hydrophila; 96-well plate, 37° C., 10 h) | MIC against K. pneumonia (Klebsiella pneumonia; 96-well plate, 37° C., 10 h)
12.5 mg/L: MIC against S. marcescens (Serratia marcescens; 96-well plate, 37° C., 10 h) | MIC against P. aeruginosa (Pseudomonas aeruginosa; 96-well plate, 37° C., 10 h)

PRT517 (CQCFGHAESCDDVTGECLNCKDHTGGPYCDKCLPGFYGEPTKGTSEDCQP; listed as Homo sapiens)
25 mg/L: MIC (E. coli DH5α) | MIC against S. marcescens (Serratia marcescens; 96-well plate, 37° C., 10 h) | MIC against C. diversus (Citrobacter diversus; 96-well plate, 37° C., 10 h) | MIC against P. aeruginosa (Pseudomonas aeruginosa; 96-well plate, 37° C., 10 h) | MIC against P. mirabilis (Proteus mirabilis; 96-well plate, 37° C., 10 h) | MIC against E. cloacae (Enterobacter cloacae; 96-well plate, 37° C., 10 h)
12.5 mg/L: MIC against P. vulgaris (Proteus vulgaris; 96-well plate, 37° C., 10 h) | MIC against E. coli BL21 (E. coli BL21; 96-well plate, 37° C., 10 h) | MIC against A. hydrophila (Aeromonas hydrophila; 96-well plate, 37° C., 10 h)
50 mg/L: MIC against M. catarrhalis (Moraxella catarrhalis; 96-well plate, 37° C., 10 h) | MIC against K. pneumonia (Klebsiella pneumonia; 96-well plate, 37° C., 10 h)
